# Source: US8148603B2, “Transgenic ficus, method for producing same and use thereof” (The State of Israel, Ministry of Agriculture & Rural …, priority 2004, dated 2012)
# Tests used:
# Assay type in all cases: in vivo
# [1] = tested on: Ficus carica cv. Brown Turkey plants; test: Herbicide resistance in control and transgenic Brown Turkey tissue culture
# Excerpt: The pME504 plasmid which comprises the bar gene [Streptomyces hygroscopicus bar gene conferring resistance to herbicide bialaphos (X05822) Thompson, C. J., Movva, N. R., Tizard, R., Crameri, R., Davies, J. E., Lauwereys, M. and Botterman, J. Characterization of the herbicide-resistance gene bar from Streptomyces hygroscopicus EMBO J. 6, 2519-2523 (1987)] was used to transform ‘Brown Turkey’ plants. Herbicide resistance in control and transgenic Brawn Turkey cv. tissue culture line 001 was evaluated.
# Ficus carica shoots [2] = test: Root formation of regenerated shoots, rooting in solid medium; conditions: for Root formation (%) ± SE, Rooting in solid medium: scored after 4 weeks
# Description: (§1) Two methods for rooting were examined. According to one method, each shoot was cultivated individually in a tube with root induction (RI) medium composed of half concentration MS medium (½MS) supplemented with 100 mg/l myo-inositol, 1 mg/l thiamine-HCl, 90 mg/l phloroglucinol, 2% sucrose (w/v), 0.25% activated charcoal (AC) and 0.8% agar (pH=5.7). The effect of IBA at different concentrations (0, 1, 2 mg/l) was also tested. Each treatment included 32 individual plants. According to another method, well developed shoots (up to 3-4 cm long with 3-4 expanded leaves) were directly transplanted from the proliferation medium to Rooting Cylinders (3.5 cm high×3.0 cm in diameter) with soil mixture comprising 55% granular polypropylene foam, 30% peat and 15% perlite (Tivonchem Ltd, Israel) moistened/soaked/with liquid RI medium without AC, supplemented with either 0, 1, 2 mg/l IBA. Results were scored (0=shoot with no root; 1=rotting shoot) after 4 weeks and based on 32 shoots (8 Magenta boxes with 4 cylinders) per treatment. Each experiment was repeated three times. Plantlets were cultured in closed boxes for one week in a growth chamber and then transferred for one week to a greenhouse. Then the plantlets were further transferred to a high humidity chamber without closures for additional 2 weeks for further acclimatization by decreasing the relative humidity stepwise.
# (§2) Two methods were examined to obtained root induction (Table 1). According to the first approach, each regenerated shoot was placed in a tube containing root induction medium comprising 2 mg/l IBA. Using this method, ca. 80% of the shoots formed roots. However, insufficient percentage of these plants was successfully acclimatized in the greenhouse conditions. According to the second approach, regenerated shoots were cultured directly in rooting cylinders, with or without 1 mg/l IBA. […] These plants had better hardening and growth characteristics and easier further acclimatization in the greenhouse conditions (FIG. 5).
# Ficus carica shoots [3] = test: Root formation of regenerated shoots, rooting in liquid medium; conditions: for Root formation (%) ± SE, Rooting in liquid medium: scored after 4 weeks
# Description: as §1, §2
# [4] = tested on: Ficus carica leaf explants; test: Adventitious shoot regeneration from leaf explants; conditions: control explants with TDZ only (0.5-5 mg/l); cv. Brown Turkey
# Description: Regeneration experiments were carried out initially with the cultivar Brown Turkey. To examine the effect of culture media on adventitious bud formation, the basal media MS, AP [13] and NN [14]; and various combinations of the auxins IBA and NAA (0.25-2 mg/l), NAA with the cytokinins TDZ (0.5-5 mg/l) and BA (2-5 mg/l) were examined. A control treatment with only TDZ (0.5-5 mg/l) was performed. The regeneration media contained MS basal salt mixture, supplemented with 100 mg/l myo-inositol, 1 mg/l thiamine-HCl, 2-4% sucrose (w/v) and 0.8%, agar (Sigma), at pH 5.7. The effect of the addition of 0.25% activated charcoal (AC) was also examined.
# The youngest three expanded leaves isolated from 3-4 weeks old plants were used as explants. Each leaf was wounded forming three scares perpendicular to the central vein and placed on regeneration medium with the abaxial or adaxial surface down. Minimum ten Petri dishes, each containing ten explants were used per treatment. The cultures were kept for 7 days in low light intensity (2.5 μmol/m^2 s) followed by exposure to high light intensity (40 μmol/m^2 s) at 25° C., in a 16 hL/8 hD photoperiod. Leaf explants were examined after 28 and 35 days and the percentage of explant producing shoots (regeneration capacity) and the mean of adventitious shoots formed per regenerating explant (regeneration efficacy) were recorded. […]
# [5] = tested on: Ficus carica leaf explants and shoots; test: Tolerance of non-inoculated leaf explants and of shoots to kanamycin
# Description: In order to use kanamycin as a selection agent for transformed cells, non-inoculated leaf explants from in vitro fig cultures of both cultivars Brown Turkey and Smyrna were tested for their tolerance to kanamycin. Wounded leaves were placed on a regeneration medium supplemented with kanamycin at a concentration selected from 0, 10, 25, 50, 75 and 100 mg/l. The minimal concentration for inhibition of adventitious shoot induction for cv. Brown Turkey was 25 mg/l. However with cv. […] Therefore, the concentration of 50 mg/l kanamycin was initially chosen for selection in the subsequent transformation experiments.
# Leaf explants of 3-4 weeks old in vitro propagated Ficus carica plants were wounded across the main vein and co-cultivated with the disarmed strain EHA105 harboring the plasmid pME504, comprising the genes GUS-int and npt II. Following co-cultivation with A. tumefaciens, explants were initially placed on regeneration medium supplemented with 50 mg/l kanamycin and 150 mg/l ticarcillin and cultured with their adaxial side up. The leaf explants were exposed for one week to low light intensity and then transferred to normal light. Under the selective conditions of 50 mg/l kanamycin, up to 30% of the explants of Brown Turkey and up to 50% of Smyrna formed green shoots after 4 weeks of culture. […]
smiles,measurement,setting,value
"CP(=O)(O)CC[C@H](N)C(=O)O [Basta, phosphinothricin]",herbicide effect on non-transformed plants,"[1]; control Brown Turkey cv., increasing concentrations of PPT (FIG. 11)",signs of necrosis and chlorosis on basal leaves following two days and died one week later
same,herbicide effect on resistant (bar transgenic) lines,"[1]; transgenic Brown Turkey cv. tissue culture line 001, 10 ppm Basta",propagated in vitro
"O=C(O)CCCc1c[nH]c2ccccc12 [IBA, indol-3-butyric acid]","Root formation (%) ± SE, Rooting in solid medium",Ficus carica shoots [2]; IBA 1 mg/l,100%
same,"Root formation (%) ± SE, Rooting in solid medium",Ficus carica shoots [2]; IBA 2 mg/l,83 ± 6.27%
same,shoots that formed roots,"Ficus carica shoots [2]; each shoot in a tube with root induction medium, 2 mg/l IBA",ca. 80%
same,"Root formation (%) ± SE, Rooting in liquid medium",Ficus carica shoots [3]; IBA 1 mg/l,47 ± 5.43%
same,"Root formation (%) ± SE, Rooting in liquid medium",Ficus carica shoots [3]; IBA 2 mg/l,81.3 ± 7.61%
same,root formation,"Ficus carica shoots [3]; shoots directly in rooting cylinders, with or without 1 mg/l IBA, after 4 weeks",100%
"O=C(Nc1ccccc1)Nc1cnns1 [TDZ, N-phenyl-N′-1,2,3-thiadiazol-5-yl urea]",regeneration frequency,[4],ca. 2%
NC[C@H]1O[C@H](O[C@H]2[C@H](O)[C@@H](O[C@H]3O[C@H](CO)[C@@H](O)[C@H](N)[C@H]3O)[C@H](N)C[C@@H]2N)[C@H](O)[C@@H](O)[C@@H]1O [kanamycin],effect on new emerging transgenic shoots,[5]; more than 3 subcultures at 100 mg/l kanamycin on proliferation medium,inhibition of their growth and development
same,minimal concentration for inhibition of adventitious shoot induction,"[5]; non-inoculated leaf explants, cv. Brown Turkey",25 mg/L
